Laboratory results reported in PubChem BioAssay (NCI).
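Exposure lasted 48 hours, with cells grown in 96-well plates and compounds tested at five concentrations. TGI is the concentration that stops growth completely.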

tested on: HOP-18 NSCLC; assay: growth of human tumour cells (NCI), 48 h

Row | SMILES | TGI
1 | C=CC[C@H](C[C@H](C[C@H](C[C@H](C[C@H](C[C@H](C[C@H](C[C@H](C[C@H](C[C@H](CCCCC)OC)OC)OC)OC)OC)OC)OC)OC)OC)OC | > 100 µM
2 | C/C(CCn1[nH]c(=O)ccc1=O)=N\NC(=O)C(=O)NN | > 100 µM

tested on: HOP-62 NSCLC; assay: growth of human tumour cells (NCI), 48 h

Row | SMILES | TGI
3 | O=C(/C=C/c1ccccc1)C[C@@H](O)C[C@@H]1CC=CC(=O)O1 | 33.7 µM
4 | Cc1ccc(/C=C/C(=O)c2cccc3ccccc23)cc1 | 37.7 µM
5 | N#C/C(=C1/Sc2c(nc[nH]c2=O)N1c1ccccc1)c1nc2ccccc2[nH]1 | > 100 µM
6 | C=CC[C@H](C[C@H](C[C@H](C[C@H](C[C@H](C[C@H](C[C@H](C[C@H](C[C@H](C[C@H](CCCCC)OC)OC)OC)OC)OC)OC)OC)OC)OC)OC | > 100 µM
7 | NC1(c2cc3ccccc3s2)CCCC1 | > 100 µM
8 | C/C(CCn1[nH]c(=O)ccc1=O)=N\NC(=O)C(=O)NN | > 100 µM
9 | Cc1ccc(-c2csc(=Nc3ccccc3)n2NC(=O)c2ccncc2)cc1 | > 100 µM

tested on: HOP-92 NSCLC; assay: growth of human tumour cells (NCI), 48 h

Row | SMILES | TGI
10 | O=C(/C=C/c1ccccc1)C[C@@H](O)C[C@@H]1CC=CC(=O)O1 | 16 µM
11 | N#C/C(=C1/Sc2c(nc[nH]c2=O)N1c1ccccc1)c1nc2ccccc2[nH]1 | > 100 µM
12 | C=CC[C@H](C[C@H](C[C@H](C[C@H](C[C@H](C[C@H](C[C@H](C[C@H](C[C@H](C[C@H](CCCCC)OC)OC)OC)OC)OC)OC)OC)OC)OC)OC | > 100 µM
13 | NC1(c2cc3ccccc3s2)CCCC1 | > 100 µM
14 | Cc1ccc(-c2csc(=Nc3ccccc3)n2NC(=O)c2ccncc2)cc1 | > 100 µM

tested on: HS 578T breast; assay: growth of human tumour cells (NCI), 48 h

Row | SMILES | TGI
15 | O=C(/C=C/c1ccccc1)C[C@@H](O)C[C@@H]1CC=CC(=O)O1 | > 87.3 µM
16 | NC1(c2cc3ccccc3s2)CCCC1 | > 100 µM
17 | Cc1ccc(-c2csc(=Nc3ccccc3)n2NC(=O)c2ccncc2)cc1 | > 100 µM

tested on: HT29 colon; assay: growth of human tumour cells (NCI), 48 h

Row | SMILES | TGI
18 | O=C(/C=C/c1ccccc1)C[C@@H](O)C[C@@H]1CC=CC(=O)O1 | 16.8 µM
19 | Cc1ccc(/C=C/C(=O)c2cccc3ccccc23)cc1 | 43.4 µM
20 | N#C/C(=C1/Sc2c(nc[nH]c2=O)N1c1ccccc1)c1nc2ccccc2[nH]1 | > 100 µM
21 | C=CC[C@H](C[C@H](C[C@H](C[C@H](C[C@H](C[C@H](C[C@H](C[C@H](C[C@H](C[C@H](CCCCC)OC)OC)OC)OC)OC)OC)OC)OC)OC)OC | > 100 µM
22 | NC1(c2cc3ccccc3s2)CCCC1 | > 100 µM
23 | C/C(CCn1[nH]c(=O)ccc1=O)=N\NC(=O)C(=O)NN | > 100 µM
24 | Cc1ccc(-c2csc(=Nc3ccccc3)n2NC(=O)c2ccncc2)cc1 | 60 µM

tested on: IGROV1 ovarian; assay: growth of human tumour cells (NCI), 48 h

Row | SMILES | TGI
25 | O=C(/C=C/c1ccccc1)C[C@@H](O)C[C@@H]1CC=CC(=O)O1 | 31.2 µM
26 | N#C/C(=C1/Sc2c(nc[nH]c2=O)N1c1ccccc1)c1nc2ccccc2[nH]1 | > 100 µM
27 | C=CC[C@H](C[C@H](C[C@H](C[C@H](C[C@H](C[C@H](C[C@H](C[C@H](C[C@H](C[C@H](CCCCC)OC)OC)OC)OC)OC)OC)OC)OC)OC)OC | > 100 µM
28 | NC1(c2cc3ccccc3s2)CCCC1 | > 100 µM
29 | C/C(CCn1[nH]c(=O)ccc1=O)=N\NC(=O)C(=O)NN | > 100 µM
30 | Cc1ccc(-c2csc(=Nc3ccccc3)n2NC(=O)c2ccncc2)cc1 | > 100 µM

tested on: K-562 leukemia; assay: growth of human tumour cells (NCI), 48 h

Row | SMILES | TGI
31 | O=C(/C=C/c1ccccc1)C[C@@H](O)C[C@@H]1CC=CC(=O)O1 | 7 µM
32 | Cc1ccc(/C=C/C(=O)c2cccc3ccccc23)cc1 | 44.3 µM
33 | N#C/C(=C1/Sc2c(nc[nH]c2=O)N1c1ccccc1)c1nc2ccccc2[nH]1 | > 100 µM
34 | C=CC[C@H](C[C@H](C[C@H](C[C@H](C[C@H](C[C@H](C[C@H](C[C@H](C[C@H](C[C@H](CCCCC)OC)OC)OC)OC)OC)OC)OC)OC)OC)OC | > 100 µM
35 | NC1(c2cc3ccccc3s2)CCCC1 | 63 µM
36 | C/C(CCn1[nH]c(=O)ccc1=O)=N\NC(=O)C(=O)NN | > 100 µM
37 | Cc1ccc(-c2csc(=Nc3ccccc3)n2NC(=O)c2ccncc2)cc1 | 36.1 µM

tested on: KM12 colon; assay: growth of human tumour cells (NCI), 48 h

Row | SMILES | TGI
38 | O=C(/C=C/c1ccccc1)C[C@@H](O)C[C@@H]1CC=CC(=O)O1 | 16.5 µM
39 | Cc1ccc(/C=C/C(=O)c2cccc3ccccc23)cc1 | 27.9 µM
40 | N#C/C(=C1/Sc2c(nc[nH]c2=O)N1c1ccccc1)c1nc2ccccc2[nH]1 | > 100 µM
41 | C=CC[C@H](C[C@H](C[C@H](C[C@H](C[C@H](C[C@H](C[C@H](C[C@H](C[C@H](C[C@H](CCCCC)OC)OC)OC)OC)OC)OC)OC)OC)OC)OC | > 100 µM
42 | NC1(c2cc3ccccc3s2)CCCC1 | > 100 µM
43 | C/C(CCn1[nH]c(=O)ccc1=O)=N\NC(=O)C(=O)NN | > 100 µM
44 | Cc1ccc(-c2csc(=Nc3ccccc3)n2NC(=O)c2ccncc2)cc1 | > 100 µM

tested on: KM20L2 colon; assay: growth of human tumour cells (NCI), 48 h

Row | SMILES | TGI
45 | Cc1ccc(/C=C/C(=O)c2cccc3ccccc23)cc1 | 31 µM
46 | N#C/C(=C1/Sc2c(nc[nH]c2=O)N1c1ccccc1)c1nc2ccccc2[nH]1 | > 100 µM
47 | C=CC[C@H](C[C@H](C[C@H](C[C@H](C[C@H](C[C@H](C[C@H](C[C@H](C[C@H](C[C@H](CCCCC)OC)OC)OC)OC)OC)OC)OC)OC)OC)OC | > 100 µM
48 | C/C(CCn1[nH]c(=O)ccc1=O)=N\NC(=O)C(=O)NN | > 100 µM

tested on: LOX IMVI melanoma; assay: growth of human tumour cells (NCI), 48 h

Row | SMILES | TGI
49 | O=C(/C=C/c1ccccc1)C[C@@H](O)C[C@@H]1CC=CC(=O)O1 | 7.02 µM
50 | C=CC[C@H](C[C@H](C[C@H](C[C@H](C[C@H](C[C@H](C[C@H](C[C@H](C[C@H](C[C@H](CCCCC)OC)OC)OC)OC)OC)OC)OC)OC)OC)OC | > 100 µM
51 | NC1(c2cc3ccccc3s2)CCCC1 | > 100 µM
52 | C/C(CCn1[nH]c(=O)ccc1=O)=N\NC(=O)C(=O)NN | > 100 µM
53 | Cc1ccc(-c2csc(=Nc3ccccc3)n2NC(=O)c2ccncc2)cc1 | > 100 µM

tested on: LXFL 529 NSCLC; assay: growth of human tumour cells (NCI), 48 h

Row | SMILES | TGI
54 | Cc1ccc(/C=C/C(=O)c2cccc3ccccc23)cc1 | 25.3 µM
55 | N#C/C(=C1/Sc2c(nc[nH]c2=O)N1c1ccccc1)c1nc2ccccc2[nH]1 | > 100 µM
56 | C/C(CCn1[nH]c(=O)ccc1=O)=N\NC(=O)C(=O)NN | > 100 µM

tested on: M14 melanoma; assay: growth of human tumour cells (NCI), 48 h

Row | SMILES | TGI
57 | O=C(/C=C/c1ccccc1)C[C@@H](O)C[C@@H]1CC=CC(=O)O1 | 23.5 µM
58 | Cc1ccc(/C=C/C(=O)c2cccc3ccccc23)cc1 | 39.5 µM
59 | N#C/C(=C1/Sc2c(nc[nH]c2=O)N1c1ccccc1)c1nc2ccccc2[nH]1 | > 100 µM
60 | C=CC[C@H](C[C@H](C[C@H](C[C@H](C[C@H](C[C@H](C[C@H](C[C@H](C[C@H](C[C@H](CCCCC)OC)OC)OC)OC)OC)OC)OC)OC)OC)OC | > 100 µM
61 | NC1(c2cc3ccccc3s2)CCCC1 | 56.2 µM
62 | C/C(CCn1[nH]c(=O)ccc1=O)=N\NC(=O)C(=O)NN | > 100 µM
63 | Cc1ccc(-c2csc(=Nc3ccccc3)n2NC(=O)c2ccncc2)cc1 | > 100 µM

tested on: M19-MEL melanoma; assay: growth of human tumour cells (NCI), 48 h

Row | SMILES | TGI
64 | Cc1ccc(/C=C/C(=O)c2cccc3ccccc23)cc1 | 49.9 µM
65 | N#C/C(=C1/Sc2c(nc[nH]c2=O)N1c1ccccc1)c1nc2ccccc2[nH]1 | > 100 µM
66 | C=CC[C@H](C[C@H](C[C@H](C[C@H](C[C@H](C[C@H](C[C@H](C[C@H](C[C@H](C[C@H](CCCCC)OC)OC)OC)OC)OC)OC)OC)OC)OC)OC | > 100 µM
67 | C/C(CCn1[nH]c(=O)ccc1=O)=N\NC(=O)C(=O)NN | > 100 µM

tested on: MALME-3M melanoma; assay: growth of human tumour cells (NCI), 48 h

Row | SMILES | TGI
68 | O=C(/C=C/c1ccccc1)C[C@@H](O)C[C@@H]1CC=CC(=O)O1 | 30.6 µM
69 | Cc1ccc(/C=C/C(=O)c2cccc3ccccc23)cc1 | 28.6 µM
70 | N#C/C(=C1/Sc2c(nc[nH]c2=O)N1c1ccccc1)c1nc2ccccc2[nH]1 | > 100 µM
71 | C=CC[C@H](C[C@H](C[C@H](C[C@H](C[C@H](C[C@H](C[C@H](C[C@H](C[C@H](C[C@H](CCCCC)OC)OC)OC)OC)OC)OC)OC)OC)OC)OC | > 100 µM
72 | NC1(c2cc3ccccc3s2)CCCC1 | > 100 µM
73 | C/C(CCn1[nH]c(=O)ccc1=O)=N\NC(=O)C(=O)NN | > 100 µM
74 | Cc1ccc(-c2csc(=Nc3ccccc3)n2NC(=O)c2ccncc2)cc1 | > 100 µM

tested on: MCF7 breast; assay: growth of human tumour cells (NCI), 48 h

Row | SMILES | TGI
75 | O=C(/C=C/c1ccccc1)C[C@@H](O)C[C@@H]1CC=CC(=O)O1 | 11.4 µM
76 | NC1(c2cc3ccccc3s2)CCCC1 | > 100 µM
77 | Cc1ccc(-c2csc(=Nc3ccccc3)n2NC(=O)c2ccncc2)cc1 | > 100 µM

tested on: MDA-MB-231 breast; assay: growth of human tumour cells (NCI), 48 h

Row | SMILES | TGI
78 | O=C(/C=C/c1ccccc1)C[C@@H](O)C[C@@H]1CC=CC(=O)O1 | 27.5 µM
79 | NC1(c2cc3ccccc3s2)CCCC1 | > 100 µM
80 | Cc1ccc(-c2csc(=Nc3ccccc3)n2NC(=O)c2ccncc2)cc1 | > 100 µM

tested on: MDA-MB-435; assay: growth of human tumour cells (NCI), 48 h

Row | SMILES | TGI
81 | O=C(/C=C/c1ccccc1)C[C@@H](O)C[C@@H]1CC=CC(=O)O1 | 26.6 µM
82 | NC1(c2cc3ccccc3s2)CCCC1 | > 100 µM
83 | Cc1ccc(-c2csc(=Nc3ccccc3)n2NC(=O)c2ccncc2)cc1 | > 100 µM

tested on: MDA-N; assay: growth of human tumour cells (NCI), 48 h

Row | SMILES | TGI
84 | O=C(/C=C/c1ccccc1)C[C@@H](O)C[C@@H]1CC=CC(=O)O1 | 14.3 µM
85 | NC1(c2cc3ccccc3s2)CCCC1 | > 100 µM
86 | Cc1ccc(-c2csc(=Nc3ccccc3)n2NC(=O)c2ccncc2)cc1 | > 100 µM

tested on: MOLT-4 leukemia; assay: growth of human tumour cells (NCI), 48 h

Row | SMILES | TGI
87 | O=C(/C=C/c1ccccc1)C[C@@H](O)C[C@@H]1CC=CC(=O)O1 | 12.5 µM
88 | Cc1ccc(/C=C/C(=O)c2cccc3ccccc23)cc1 | 67.6 µM
89 | N#C/C(=C1/Sc2c(nc[nH]c2=O)N1c1ccccc1)c1nc2ccccc2[nH]1 | > 100 µM
90 | C=CC[C@H](C[C@H](C[C@H](C[C@H](C[C@H](C[C@H](C[C@H](C[C@H](C[C@H](C[C@H](CCCCC)OC)OC)OC)OC)OC)OC)OC)OC)OC)OC | > 100 µM
91 | NC1(c2cc3ccccc3s2)CCCC1 | 47.3 µM
92 | C/C(CCn1[nH]c(=O)ccc1=O)=N\NC(=O)C(=O)NN | > 100 µM
93 | Cc1ccc(-c2csc(=Nc3ccccc3)n2NC(=O)c2ccncc2)cc1 | > 76.8 µM

tested on: NCI-H226 lung; assay: growth of human tumour cells (NCI), 48 h

Row | SMILES | TGI
94 | O=C(/C=C/c1ccccc1)C[C@@H](O)C[C@@H]1CC=CC(=O)O1 | > 100 µM
95 | Cc1ccc(/C=C/C(=O)c2cccc3ccccc23)cc1 | 34.3 µM
96 | C=CC[C@H](C[C@H](C[C@H](C[C@H](C[C@H](C[C@H](C[C@H](C[C@H](C[C@H](C[C@H](CCCCC)OC)OC)OC)OC)OC)OC)OC)OC)OC)OC | > 100 µM
97 | NC1(c2cc3ccccc3s2)CCCC1 | > 100 µM
